From patent US7666890B2, “Synthesis and herbicidal activity of 1- (2-substituted benzo[d]thiazol-5-yl)-1H-1,2,4-triazol-5(4H)-one derivatives” (Huazhong Normal University, priority 2007, dated 2010)

Legend:
[1] = test system: Chenopodium album; assay: Test of herbicidal activities (greenhouse pot method); format: in vivo; conditions: single dose 300 g ai./h, treated before/after germination, 15 days later, greenhouse pot; for inhibition at 300 g/ha: Chenopodium album, 360 h, read-out: Herbicidal activity Chenopodium album (inhibition level)
Summary of the method: (§1)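 Greenhouse pot test at a single dose of 300 g ai./h, applied by spray tower pre- or post-emergence, with grasses at the 2-leaf stage, in triplicate with a blank control. Plants were kept at 15–30 °C. Inhibition was graded after 15 days: A 90–100%, B 80–<90%, C 60–<80%, D 50–<60%, E <50%.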

[2] = test system: Setaria viridis; assay: as above; format: in vivo; conditions: single dose 300 g ai./h, treated before/after germination, 15 days later, greenhouse pot; for inhibition at 300 g/ha: Setaria viridis, 360 h, read-out: Herbicidal activity Setaria viridis (inhibition level)
Summary of the method: as §1

[3] = test system: Amaranthus retroflexus; assay: as above; format: in vivo; conditions: single dose 300 g ai./h, treated before/after germination, 15 days later, greenhouse pot; for inhibition at 300 g/ha: Amaranthus retroflexus, 360 h, read-out: Herbicidal activity Amaranthus retroflexus (inhibition level)
Summary of the method: as §1

[4] = test system: Digiatria sanguinalis; assay: as above; format: in vivo; conditions: single dose 300 g ai./h, treated before/after germination, 15 days later, greenhouse pot; for inhibition at 300 g/ha: 360 h, read-out: Herbicidal activity Digiatria sanguinalis (inhibition level)
Summary of the method: as §1

[5] = test system: Echinochloa crusgalli; assay: as above; format: in vivo; conditions: single dose 300 g ai./h, treated before/after germination, 15 days later, greenhouse pot; for inhibition at 300 g/ha: Echinochloa crus-galli, 360 h, read-out: Herbicidal activity Echinochloa crusgalli (inhibition level)
Summary of the method: as §1

[6] = test system: Brassica juncea; assay: as above; format: in vivo; conditions: single dose 300 g ai./h, treated before/after germination, 15 days later, greenhouse pot; for inhibition at 300 g/ha: Brassica juncea, 360 h, read-out: Herbicidal activity Brassica juncea (inhibition level)
Summary of the method: as §1

Row | SMILES | inhibition at 300 g/ha [1] [%] | inhibition at 300 g/ha [2] [%] | inhibition at 300 g/ha [3] [%] | inhibition at 300 g/ha [4] [%] | inhibition at 300 g/ha [5] [%] | inhibition at 300 g/ha [6] [%] | melting point [°C] | Herbicidal activity Chenopodium album (inhibition level) [1] | Herbicidal activity Setaria viridis (inhibition level) [2] | Herbicidal activity Amaranthus retroflexus (inhibition level) [3] | Herbicidal activity Digiatria sanguinalis (inhibition level) [4] | Herbicidal activity Echinochloa crusgalli (inhibition level) [5] | Herbicidal activity Brassica juncea (inhibition level) [6]
1 | Cc1nn(-c2cc3nc(S(=O)(=O)Cc4ccccc4Cl)sc3cc2Cl)c(=O)n1C(F)F [Compound 39, 1-(2-(2-chlorobenzylsulfonyl)-6-chlorobenzo[d]thiazol-5-yl)-4-(difluoromethyl)-3-methyl-1H-1,2,4-triazol-5(4H)-one] | 60 to 80 | 60 to 80 | 80 to 90 | 60 to 80 | < 50 | 80 to 90 | 196 to 198 |  |  |  |  |  | 
2 | Cc1nn(-c2cc3nc([S+]([O-])Cc4ccccc4)sc3cc2F)c(=O)n1C (stereo not drawn) [Compound 101, 1-(2-(benzylsulfinyl)-6-fluorobenzo[d]thiazol-5-yl)-3,4-dimethyl-1H-1,2,4-triazol-5(4H)-one] | 80 to 90 | 60 to 80 | 60 to 80 | 60 to 80 | 80 to 90 | 50 to 60 | 162 to 164 |  |  |  |  |  | 
3 | Cc1nn(-c2cc3nc([S+](C)[O-])sc3cc2F)c(=O)n1C (stereo not drawn) [Compound 102, 1-(6-fluoro-2-(methylsulfinyl)benzo[d]thiazol-5-yl)-3,4-dimethyl-1H-1,2,4-triazol-5(4H)-one] | 90 to 100 | 60 to 80 | 80 to 90 | 50 to 60 | < 50 | 60 to 80 | 199 to 201 |  |  |  |  |  | 
4 | Cc1nn(-c2cc3nc(SCc4cccc([N+](=O)[O-])c4)sc3cc2F)c(=O)n1C(F)F [Compound 13] |  |  |  |  |  |  |  | C (60 ≦ C < 80%) | C (60 ≦ C < 80%) | A (90 ≦ A ≦ 100%) | B (80 ≦ B < 90%) | C (60 ≦ C < 80%) | B (80 ≦ B < 90%)
5 | CCCSc1nc2cc(-n3nc(C)n(C(F)F)c3=O)c(Cl)cc2s1 [Compound 100] |  |  |  |  |  |  |  | A (90 ≦ A ≦ 100%) | C (60 ≦ C < 80%) | A (90 ≦ A ≦ 100%) | B (80 ≦ B < 90%) | B (80 ≦ B < 90%) | A (90 ≦ A ≦ 100%)
6 | CSc1nc2cc(-n3nc(C)n(C(F)F)c3=O)c(F)cc2s1 [Compound 90] |  |  |  |  |  |  |  | A (90 ≦ A ≦ 100%) | A (90 ≦ A ≦ 100%) | A (90 ≦ A ≦ 100%) | A (90 ≦ A ≦ 100%) | B (80 ≦ B < 90%) | A (90 ≦ A ≦ 100%)
7 | Cc1nn(-c2cc3nc(SCc4ccc(F)cc4)sc3cc2F)c(=O)n1C(F)F [Compound 20] |  |  |  |  |  |  |  | B (80 ≦ B < 90%) | B (80 ≦ B < 90%) | A (90 ≦ A ≦ 100%) | C (60 ≦ C < 80%) | C (60 ≦ C < 80%) | B (80 ≦ B < 90%)
8 | Cc1nn(-c2cc3nc(SCc4ccccc4F)sc3cc2F)c(=O)n1C(F)F [Compound 18] |  |  |  |  |  |  |  | C (60 ≦ C < 80%) | B (80 ≦ B < 90%) | A (90 ≦ A ≦ 100%) | A (90 ≦ A ≦ 100%) | C (60 ≦ C < 80%) | B (80 ≦ B < 90%)
9 | Cc1nn(-c2cc3nc(SCc4csc(Cl)n4)sc3cc2F)c(=O)n1C(F)F [Compound 10] |  |  |  |  |  |  |  | C (60 ≦ C < 80%) | C (60 ≦ C < 80%) | B (80 ≦ B < 90%) | C (60 ≦ C < 80%) | B (80 ≦ B < 90%) | A (90 ≦ A ≦ 100%)
10 | CCS(=O)(=O)c1nc2cc(-n3nc(C)n(C(F)F)c3=O)c(Cl)cc2s1 [Compound 58] |  |  |  |  |  |  |  | A (90 ≦ A ≦ 100%) | C (60 ≦ C < 80%) | A (90 ≦ A ≦ 100%) | A (90 ≦ A ≦ 100%) | B (80 ≦ B < 90%) | B (80 ≦ B < 90%)
11 | Cc1nn(-c2cc3nc(SCc4ccc(Br)cc4)sc3cc2Cl)c(=O)n1C(F)F [Compound 6] |  |  |  |  |  |  |  | B (80 ≦ B < 90%) | C (60 ≦ C < 80%) | B (80 ≦ B < 90%) | E (E < 50%) | B (80 ≦ B < 90%) | C (60 ≦ C < 80%)
12 | Cc1nn(-c2cc3nc(SCc4c(F)cccc4F)sc3cc2Cl)c(=O)n1C(F)F [Compound 9] |  |  |  |  |  |  |  | C (60 ≦ C < 80%) | E (E < 50%) | B (80 ≦ B < 90%) | B (80 ≦ B < 90%) | B (80 ≦ B < 90%) | A (90 ≦ A ≦ 100%)
13 | C=CCSc1nc2cc(-n3nc(C)n(C(F)F)c3=O)c(F)cc2s1 [Compound 94] |  |  |  |  |  |  |  | B (80 ≦ B < 90%) | A (90 ≦ A ≦ 100%) | B (80 ≦ B < 90%) | A (90 ≦ A ≦ 100%) | A (90 ≦ A ≦ 100%) | B (80 ≦ B < 90%)
14 | CCOC(=O)C(C)S(=O)(=O)c1nc2cc(-n3nc(C)n(C(F)F)c3=O)c(Cl)cc2s1 (stereo not drawn) [Compound 67] |  |  |  |  |  |  |  | B (80 ≦ B < 90%) | B (80 ≦ B < 90%) | C (60 ≦ C < 80%) | A (90 ≦ A ≦ 100%) | C (60 ≦ C < 80%) | B (80 ≦ B < 90%)
